From patent publication US20180353472A1, “UNIT DOSE FORMULATIONS FOR USE AS AN ANTI-FUGETACTIC AGENT” (THE GENERAL HOSPITAL CORPORATION d.b.a MASSACHUSETTS …, priority 2015, published 2018)

What was measured:
[1] = tested on: breast cancer tumor which over-expresses CXCL12; settings: human patient, dose between 0.000001% and 65% of the dose appropriate for recruiting stem cells, once a day for five days, optionally followed by a chemotherapeutic drug
Method: A human patient with a breast cancer tumor which over-expresses CXCL12 is administered AMD3100 at a dose between 0.000001% and 65% of the dose appropriate for recruiting stem cells once a day for five days, optionally followed by a chemotherapeutic drug.

[2] = tested on: tumor that expresses high levels of CXCL12; settings: mice, subcutaneous, dose between 0.000001% and 65% of the dose appropriate for recruiting stem cells, once a day for 5 days; assessed one to three days after final dose
Method: Mice are injected with tumor cells (subcutaneous injection) from a tumor that expresses high levels of CXCL12 and a tumor is allowed to develop.
One to three days after the final AMD3100 dose, mice are assessed for tumor growth and the reduction or knock down of fugetaxis.

c1cc(CN2CCCNCCNCCCNCC2)ccc1CN1CCCNCCNCCCNCC1 [AMD3100, 1, 1′-[1,4-phenylenebis (methylene)]-bis-1,4,8,11-tetraazacyclotetradecane]
T cell recruitment into the tumor [1]: increased T cell recruitment into the tumor
patient survival [1]: increase in patient survival
tumor volume [1]: decrease in tumor volume
anti-fugetactic effect (reduction or knock down of fugetaxis) [2]: will have an anti-fugetactic effect
